In publication PMC6005341, “Identification of “sarsasapogenin-aglyconed” timosaponins as novel Aβ-lowering modulators of amyloid precursor protein processing” (Chemical Science, 2016):

Tested on: Aβ42 levels in rat primary cortical neuron culture
Experiment: Aβ42 in conditioned medium of rat primary cortical neuron culture, 5-day incubation
Format: cell-based
Conditions: n = 3
Description: Reagents: All reagents were of analytical grade (purity > 98%) and were purchased from Sigma-Aldrich Chemical Co. unless otherwise specified. SSG (1) was purchased from Wako Pure Chemical Industries, Ltd. Diosgenin (6), Dioscin (9), Polyphyllin D (10), Timosaponin BI (22) and Timosaponin BII (23) were purchased from Chengdu Must Bio-Technology Co.
Ltd. Yamogenin (7) was bought from Ambinter c/o Greenpharma while Smilagenin (24) was bought from Steraloids Inc. Substances dissolved in DMSO as stock solutions. Cell culture medium constituents were purchased from Life Technologies, Inc.
Cell culture: Neuro-2A cells expressing Swedish mutants of APP (N2A-APPswe provided by Prof. Yifan Han, The Hong Kong Polytechnic University)1 was cultured in minimal essential medium with 2 mM glutamine, 2 mM pyruvate and 10% fetal bovine serum. Cells were seeded at 6-well plate at 1×106 cells/mL and grown for two days until confluence. The medium was replaced and the testing compounds were added at indicated concentrations for […]
Primary cortical neurons were prepared from embryonic day 17 Sprague-Dawley rats (Laboratory Animal Unit, The University of Hong Kong). Cerebral cortices were mechanically dissociated in complete medium (MEM with 18 mM glucose; 2 mM L-glutamine; 5% FBS; hormone cocktail, penicillin (50 U/mL), streptomycin (50 μg/mL), and […]). Cells were seeded onto six-well plate (0.5 × 10^6 cells/well) pre-coated with poly-L-lysine. […]
rabbit antibody (Millipore). The immunoreactivities were detected using enhanced chemiluminescence reagents (GE Health care). […]
Aβ ELISA: Aβ concentrations in conditioned medium were assayed using ELISA kits for human Aβ40, human Aβ42 (ultrasensitive) (Invitrogen), human Aβ38 (MyBioSource) (in N2A-APPswe cells) or Wako High Sensitive Aβx-42 ELISA kit (in Rat primary cortical neuron culture). The viability of the N2A-APPswe and Primary cortical neurons were determined by MTT and LDH release assays, respectively. […]

Row | Structure (SMILES) | Aβ42 reduction (%) (5 μM) | Aβ42 reduction (%) (10 μM)
1 | C[C@H]1CC[C@@]2(OC1)O[C@H]1C[C@H]3[C@@H]4CC[C@@H]5C[C@@H](O)CC[C@]5(C)[C@H]4CC[C@]3(C)[C@H]1[C@@H]2C [SSG (1), sarsasapogenin] | 25 ± 4 | –
2 | C[C@H]1CC[C@@]2(OC1)O[C@H]1C[C@H]3[C@@H]4CC[C@@H]5C[C@@H](O[C@@H]6O[C@H](CO)[C@H](O)[C@H](O)[C@H]6O)CC[C@]5(C)[C@H]4CC[C@]3(C)[C@H]1[C@@H]2C [TAI (3), timosaponin A I] | – | 28 ± 5
3 | C[C@H]1CC[C@@]2(OC1)O[C@H]1C[C@H]3[C@@H]4CC[C@@H]5C[C@@H](O[C@@H]6O[C@H](CO)[C@H](O)[C@H](O)[C@H]6O[C@@H]6O[C@H](CO)[C@@H](O)[C@H](O)[C@H]6O)CC[C@]5(C)[C@H]4CC[C@]3(C)[C@H]1[C@@H]2C [TAIII (2), timosaponin A III] | 42 ± 9 | –
